These results are taken from US9629848B2, “Compounds that modulate autoimmunity and methods of using the same” (The Regents of the University of Colorado, a body corporate, priority 2011, dated 2017).

The target in one test is DQ8 (Homo sapiens, UniProt P01909+P01920, A209T/A45G/C70Q/D89A/DUP78-78/E183D/E77G/F237L/G63E/H199R/I129T/K197E/L178F/L74F/L98V/Q57E/Q76R/S185I/S97I/T217I/T49S/V73L/Y58L). As to the kind of experiment: Competitive binding assay B:9-23 to DQ8.
Test [1] deals with 5KC cells transduced with a 4-8 TCR. As to the kind of experiment: Endogenous insulin presentation: whole insulin with I-A^g^7 splenocytes and 4-8 TCR transduced 5KC cells. To be noted: whole insulin with I-A^g^7 containing splenocytes. The test is classed as cell-based, mouse. How it is done:
The ability of the small molecules to block endogenous insulin presentation was tested. Incubation of whole insulin with I-A^g^7 containing splenocytes activates 5KC cells (T cell hybridoma lacking endogenous TCRα and β chains) transduced with a 4-8 TCR. […] To document direct effects of these small molecules on inhibiting peptide binding to I-A^g^7, an I-A^g^7 protein construct was expressed in baculovirus with a linked peptide. The flexible linker contained a thrombin cleavage site, allowing for thrombin cleavage of the linker and release of the peptide.

Another test has as its system BDC 2.5 T cell hybridoma. Kind of test: Chromogranin peptide mimotope presentation by I-A^g^7 to BDC 2.5 T cell hybridoma. The test is classed as cell-based, mouse. Particulars: specificity test.

Some results are limits rather than exact numbers.

In turn, `CN(C)C(Cl)(N(C)C)C(Cl)(N(C)C)N(C)C` [p6:18] showed an IC50 at DQ8 of more than 100 µM. For the same molecule, in test [1], the “IC50 for blocking T cell stimulation from endogenously processed insulin” value was “low nanomolar”.
For the molecule `O=[PH](O)C(O)c1ccccc1` (stereo not shown) [p6:17], in the test on BDC 2.5 T cell hybridoma, the “Inhibition of chromogranin presentation to the BDC 2.5 hybridoma” value is on record as “no inhibition”. The IC50 on DQ8 was more than 100 µM.
